Consider 20 compounds from the supplement of paper PMC11821682.

Experiment [1] has as its system Danio rerio embryo. In words: BMC10 any morphological effect or mortality at 120 hpf; higher = less toxic.
The next experiment has as its system HL-60. The experiment can be described thus: Cell Health Index (toxicity pseudo-probability over dose series) (index 0-1); higher = more cytotoxic / cell stress.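 Note: HL-60 cells exposed 4 h at 37 °C to ten threefold dilutions spanning 5 nM to 100 µM, multiparametric flow cytometry features scored by machine-learning classification.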
Experiment [2] concerns Danio rerio embryo. The experiment can be described thus: LEL embryonic photomotor response 24 hpf. How it is done: (§1)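 ZBEscreen: dechorionated Tropical 5D zebrafish embryos were exposed from 4 hpf in 96-well plates (1% DMSO, 28 °C). All compounds were first tested at 100 µM; hits were retested at 0.005-100 µM. Morphology and mortality were scored at 120 hpf and fitted as BMC10 (3-parameter log-logistic, extra risk). The embryonic photomotor response at 24 hpf and the larval photomotor response at 120 hpf are given as lowest effect levels (K-S test, p<0.01). NA = not significant up to 100 µM; NT = not tested.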

Experiment [3] concerns Danio rerio embryo. In words: LEL larval photomotor response dark phase 120 hpf. The method, then: as §1

SMILES strings stand for the structures.

Turning to `O=C(O)CCCCC1CCSS1` (racemic) [DL-alpha-Lipoic acid], the “BMC10 any morphological effect or mortality” value in the experiment on Danio rerio embryo [1] is greater than 100 µM. For the same compound, the “Cell Health Index” value in the experiment with HL-60 stood at 0.172. The “LEL embryonic photomotor response 24 hpf” value in the experiment on Danio rerio embryo [2] is greater than 100 µM. Moreover, in the experiment on Danio rerio embryo [3], the “LEL larval photomotor response dark phase 120 hpf” value was greater than 100 µM.

As for `C[C@@]1(O)[C@H](O)[C@@H](CO)O[C@H]1n1ccc(N)nc1=O` [2'-C-Methylcytidine], in the experiment with Danio rerio embryo [1], the “BMC10 any morphological effect or mortality” value was greater than 100 µM. The “Cell Health Index” value in the experiment with HL-60 stood at 0.129. Further, the “LEL embryonic photomotor response 24 hpf” value in the experiment on Danio rerio embryo [2] was greater than 100 µM. In addition, the “LEL larval photomotor response dark phase 120 hpf” value with Danio rerio embryo [3] is greater than 100 µM.

On to `C=C1CC[C@@H]2[C@](C)(CO)[C@H](O)CC[C@@]2(C)[C@@H]1/C=C/C1=CCOC1=O` [14-deoxy-11,12-didehydro Andrographolide], for which the “BMC10 any morphological effect or mortality” value in the experiment on Danio rerio embryo [1] was greater than 100 µM. Moreover, the “Cell Health Index” value in the experiment with HL-60 was determined as 0.43. Further, the “LEL embryonic photomotor response 24 hpf” value in the experiment on Danio rerio embryo [2] came out at 100 µM. The “LEL larval photomotor response dark phase 120 hpf” value in the experiment with Danio rerio embryo [3] is greater than 100 µM.

On to `O=C(O[C@@H]1Cc2c(O)cc(O)cc2O[C@H]1c1cc(O)c(O)c(O)c1)c1cc(O)c(O)c(O)c1` [(-)-Gallocatechin gallate], for which the “BMC10 any morphological effect or mortality” value in the experiment with Danio rerio embryo [1] was greater than 100 µM. Besides, in the experiment on HL-60, the “Cell Health Index” value was determined as 0.859. In addition, in the experiment with Danio rerio embryo [2], the “LEL embryonic photomotor response 24 hpf” value was greater than 100 µM. Also, in the experiment with Danio rerio embryo [3], the “LEL larval photomotor response dark phase 120 hpf” value is greater than 100 µM.

With `CCOC(=O)[C@H]1O[C@@H]1C(=O)N[C@@H](CC(C)C)C(=O)NCCC(C)C` [Aloxistatin], the “BMC10 any morphological effect or mortality” value in the experiment with Danio rerio embryo [1] is 10.6 µM. Also, in the experiment with HL-60, the “Cell Health Index” value was 0.151. The “LEL embryonic photomotor response 24 hpf” value in the experiment with Danio rerio embryo [2] came to 33.3 µM. In addition, in the experiment with Danio rerio embryo [3], the “LEL larval photomotor response dark phase 120 hpf” value is greater than 100 µM.

As for `Cl.Nc1c(Br)cc(Br)cc1CN[C@H]1CC[C@H](O)CC1` [Ambroxol], in the experiment with Danio rerio embryo [1], the “BMC10 any morphological effect or mortality” value was 42.5 µM. Besides, in the experiment on HL-60, the “Cell Health Index” value was determined as 0.244. In addition, in the experiment with Danio rerio embryo [2], the “LEL embryonic photomotor response 24 hpf” value was determined as 100 µM. Besides, in the experiment on Danio rerio embryo [3], the “LEL larval photomotor response dark phase 120 hpf” value was greater than 100 µM.

Regarding `CCN(CC)Cc1cc(Nc2ccnc3cc(Cl)ccc23)ccc1O` [Amodiaquine], the “BMC10 any morphological effect or mortality” value in the experiment on Danio rerio embryo [1] amounted to 4.04 µM. In addition, in the experiment on HL-60, the “Cell Health Index” value stood at 0.271. Also, the “LEL embryonic photomotor response 24 hpf” value in the experiment on Danio rerio embryo [2] worked out at 1.23 µM. Besides, the “LEL larval photomotor response dark phase 120 hpf” value in the experiment on Danio rerio embryo [3] was found to be 11.1 µM.

As to `Cc1ccc2c(=O)c3cccc(CC(=O)O)c3oc2c1C` [Vadimezan], the “BMC10 any morphological effect or mortality” value with Danio rerio embryo [1] is greater than 100 µM. Further, in the experiment with HL-60, the “Cell Health Index” value is 0.169.

In the case of `CC(C)[C@H](N)C(=O)OCCOCn1cnc2c(=O)nc(N)[nH]c21.Cl` [Valacyclovir], the “BMC10 any morphological effect or mortality” value in the experiment on Danio rerio embryo [1] is greater than 100 µM. The “Cell Health Index” value in the experiment with HL-60 amounted to 0.145.

For the compound `CC(C)[C@H](N)C(=O)OCC(CO)OCn1cnc2c(=O)nc(N)[nH]c21.Cl` (some centres undefined) [Valganciclovir], in the experiment with Danio rerio embryo [1], the “BMC10 any morphological effect or mortality” value was greater than 100 µM. Moreover, the “Cell Health Index” value in the experiment with HL-60 amounted to 0.247.

Regarding `CCCC(CCC)C(=O)O` [Valproic acid], the “BMC10 any morphological effect or mortality” value in the experiment on Danio rerio embryo [1] was greater than 100 µM. For the same compound, in the experiment on HL-60, the “Cell Health Index” value is 0.188.

As for `COC[C@H]1C[C@@H](c2ncc(-c3ccc4c(c3)COc3cc5c(ccc6nc([C@@H]7CC[C@H](C)N7C(=O)[C@@H](NC(=O)OC)C(C)C)[nH]c65)cc3-4)[nH]2)N(C(=O)[C@H](NC(=O)OC)c2ccccc2)C1` [Velpatasvir], in the experiment on Danio rerio embryo [1], the “BMC10 any morphological effect or mortality” value is greater than 100 µM. The “Cell Health Index” value in the experiment on HL-60 came to 0.286.

In the case of `C[C@@H]1O[C@@H](O[C@@H]2[C@@H](O)[C@H](OCCc3ccc(O)c(O)c3)O[C@H](CO)[C@H]2OC(=O)/C=C/c2ccc(O)c(O)c2)[C@H](O)[C@H](O)[C@H]1O` [Verbascoside], the “BMC10 any morphological effect or mortality” value with Danio rerio embryo [1] is greater than 100 µM. Moreover, the “Cell Health Index” value in the experiment on HL-60 came out at 0.843.

In the case of `Nc1ncnc2c1ncn2[C@@H]1O[C@H](CO)[C@@H](O)[C@@H]1O` [Vidarabine], the “BMC10 any morphological effect or mortality” value in the experiment with Danio rerio embryo [1] was greater than 100 µM. Further, the “Cell Health Index” value in the experiment with HL-60 was found to be 0.234.

With `CCOC(=O)CN[C@@H](C(=O)N1CC[C@H]1C(=O)NCc1ccc(C(=N)NO)cc1)C1CCCCC1` [Ximelagatran], the “BMC10 any morphological effect or mortality” value in the experiment with Danio rerio embryo [1] is greater than 100 µM. In addition, in the experiment on HL-60, the “Cell Health Index” value is 0.193.

Turning to `COC(=O)CC[C@H](NC(=O)[C@H](C)NC(=O)OCc1ccccc1)C(=O)N[C@H](C(=O)N[C@@H](CC(=O)OC)C(=O)CF)C(C)C` [Z-AEVD-FMK], the “BMC10 any morphological effect or mortality” value with Danio rerio embryo [1] was greater than 100 µM. Besides, the “Cell Health Index” value in the experiment on HL-60 amounted to 0.179.

For `O=C(O)C[C@H](NC(=O)OCc1ccccc1)C(=O)COC(=O)c1c(Cl)cccc1Cl` [Z-Asp-CH2-DCB], the “BMC10 any morphological effect or mortality” value in the experiment with Danio rerio embryo [1] is greater than 100 µM. Also, in the experiment with HL-60, the “Cell Health Index” value was determined as 0.212.

On to `Nc1ccn([C@H]2CC[C@@H](CO)O2)c(=O)n1` [Zalcitabine], for which the “BMC10 any morphological effect or mortality” value in the experiment on Danio rerio embryo [1] was greater than 100 µM. For the same compound, in the experiment on HL-60, the “Cell Health Index” value amounted to 0.193.

As to `CC(=O)N[C@H]1[C@H]([C@H](O)[C@H](O)CO)OC(C(=O)O)=C[C@@H]1NC(=N)N` [Zanamivir], in the experiment with Danio rerio embryo [1], the “BMC10 any morphological effect or mortality” value was greater than 100 µM. The “Cell Health Index” value in the experiment on HL-60 amounted to 0.22.

For the compound `Cc1cn([C@H]2C[C@H](N=[N+]=[N-])[C@@H](CO)O2)c(=O)[nH]c1=O` [Zidovudine], the “BMC10 any morphological effect or mortality” value in the experiment with Danio rerio embryo [1] is greater than 100 µM. In addition, in the experiment with HL-60, the “Cell Health Index” value was determined as 0.17.
